pIC50: −log10 of the molar value. ≈ marks a conversion by molar mass, not a printed value. Calls of active or inactive are those of the source. The calls are words filed in the database; no cut-off is given here.

The target of data set [1] is T1, Ceramide glucosyltransferase (Homo sapiens, UniProt Q16739).
T1 sequence (Q16739 whole entry): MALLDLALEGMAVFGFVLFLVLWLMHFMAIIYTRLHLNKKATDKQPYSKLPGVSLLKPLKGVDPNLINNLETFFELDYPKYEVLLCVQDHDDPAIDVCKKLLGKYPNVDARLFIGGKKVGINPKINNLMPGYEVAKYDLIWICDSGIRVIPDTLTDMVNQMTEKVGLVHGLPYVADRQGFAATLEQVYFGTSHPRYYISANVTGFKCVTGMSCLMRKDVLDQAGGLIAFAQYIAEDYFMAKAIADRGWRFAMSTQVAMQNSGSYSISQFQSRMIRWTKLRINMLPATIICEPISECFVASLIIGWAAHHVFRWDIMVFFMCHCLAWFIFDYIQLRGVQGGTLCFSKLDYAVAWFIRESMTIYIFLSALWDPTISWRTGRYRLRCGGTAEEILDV
Briefly: Inhibition of human GCS using C8-ceramide and UDP-glucose as substrate incubated for 1 hr by RapidFire mass spectrometry.

Data set [2] is described as follows: Intrinsic clearance in mouse liver microsomes at 1 uM in presence of NADPH generating system assessed per mg protein by LC-MS/MS analysis. The class given is ADME, Microsome. To be noted: read-out: CLH. For orientation: Liver microsomes are a subcellular fraction often used to study metabolism.
Data set [3] can be described thus: 1-Octanol/aqueous buffer partition coefficient, logD of the compound at pH 7.4 by chromatographic method. The class given is physicochemical.
A further data set deals with hERG (Homo sapiens, UniProt Q12809). In words: Inhibition of hERG expressed in CHO-K1 cells at 10 uM incubated for 5 mins by whole cell-automated voltage clamp analysis. The class given is toxicity, cell-based. As to conditions: CHO-K1 cells expressing hERG. In general terms: Block of hERG is tested as a sign of cardiac risk.
Chain of hERG (Q12809 whole entry): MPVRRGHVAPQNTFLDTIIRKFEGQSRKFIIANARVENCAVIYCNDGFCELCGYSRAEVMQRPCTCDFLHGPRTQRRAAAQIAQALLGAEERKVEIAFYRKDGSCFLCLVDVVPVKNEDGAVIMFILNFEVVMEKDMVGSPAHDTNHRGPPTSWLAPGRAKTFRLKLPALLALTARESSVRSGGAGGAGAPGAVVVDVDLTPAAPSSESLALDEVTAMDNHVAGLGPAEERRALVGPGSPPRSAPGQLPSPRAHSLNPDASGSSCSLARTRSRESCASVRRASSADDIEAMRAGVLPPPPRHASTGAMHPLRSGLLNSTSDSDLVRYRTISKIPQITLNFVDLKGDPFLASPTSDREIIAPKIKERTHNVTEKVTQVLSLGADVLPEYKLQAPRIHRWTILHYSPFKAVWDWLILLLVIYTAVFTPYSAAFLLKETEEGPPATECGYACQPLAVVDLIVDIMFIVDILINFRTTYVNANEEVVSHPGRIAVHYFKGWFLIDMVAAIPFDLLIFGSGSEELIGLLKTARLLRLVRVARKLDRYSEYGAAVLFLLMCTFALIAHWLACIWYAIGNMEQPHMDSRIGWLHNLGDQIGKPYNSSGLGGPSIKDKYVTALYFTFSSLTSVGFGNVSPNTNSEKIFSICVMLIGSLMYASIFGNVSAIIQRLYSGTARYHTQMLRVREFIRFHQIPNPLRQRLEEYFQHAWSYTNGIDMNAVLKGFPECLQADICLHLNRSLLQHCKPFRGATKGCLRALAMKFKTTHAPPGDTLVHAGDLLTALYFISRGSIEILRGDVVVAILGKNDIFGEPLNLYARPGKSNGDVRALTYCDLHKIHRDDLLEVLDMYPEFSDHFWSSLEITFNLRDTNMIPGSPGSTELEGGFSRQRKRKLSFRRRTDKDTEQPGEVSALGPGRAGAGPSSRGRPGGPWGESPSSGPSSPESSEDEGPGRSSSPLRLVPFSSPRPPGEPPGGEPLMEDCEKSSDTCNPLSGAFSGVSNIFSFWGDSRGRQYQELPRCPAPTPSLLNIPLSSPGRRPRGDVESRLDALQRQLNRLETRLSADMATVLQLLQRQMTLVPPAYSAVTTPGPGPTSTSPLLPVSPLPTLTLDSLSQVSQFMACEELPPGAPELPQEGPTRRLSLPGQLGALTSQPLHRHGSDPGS
Data set [4] can be described thus: Efflux ratio of apparent permeability from basolateral to apical side over apical to basolateral side in dog MDCK-MDR1 cells at 1 uM measured after 1 hr by LC-MS/MS analysis. It counts as ADME, cell-based, Canis lupus familiaris.
A short description of data set [5]: Kinetic solubility of the compound in JP2 fluid at pH 6.8 by precipitation method. It counts as physicochemical. To be noted: read-out: Kinetic_solubility.
Data set [6] deals with T2, Ceramide glucosyltransferase (Homo sapiens) (UniProt Q16739).
T2 sequence (whole entry): T1 sequence (Q16739 whole entry)
Briefly: Uncompetitive inhibition of GCS (unknown origin) using 1 to 70 uM C8-ceramide and 0.1 to 200 uM UDP-glucose as substrate incubated for 1 hr by RapidFire mass spectrometry.

By pIC50 is commonly meant the IC50 on a negative log10 scale, so that one unit is a factor of ten. A low value points to a high IC50. `COc1ccccc1-c1nccc2c1CN(c1ccc(C)cc1)C2=O` gave a pIC50 in data set [1] of 7.01. Further, in data set [2], the microsomal CLint at 1 µM was over 768 µL/min/mg.

One may read the chromatographic logD as lipophilicity estimated from chromatographic retention. High values mean a more lipophilic compound, low ones a more hydrophilic compound. The term inhibition denotes the percentage by which the read-out fell short of the control. Broadly, the efflux ratio is a quotient of directional permeabilities that is used to spot active efflux. `CC(C)(C#N)c1ccc(N2Cc3c(ccnc3-c3ccc(F)cc3OCC(F)(F)F)C2=O)cc1` had a pIC50 in data set [1] of 7.77. The chromatographic logD in data set [3] came to 2.86. On hERG, this compound came in with an inhibition at 5 min, 10 µM of 39.4%. Further, the efflux ratio at 1 h, 1 µM in data set [4] was determined as 4.

The compound `CN(C)C(=O)c1ccc(N2Cc3c(ccnc3-c3ccc(F)cc3OCC(F)(F)F)C2=O)cc1` gave a pIC50 in data set [1] of 6.15. The compound further gave a chromatographic logD in data set [3] of 1.99. For the same compound, the inhibition at 5 min, 10 µM against hERG is 41.8%. In addition, the efflux ratio at 1 h, 1 µM in data set [4] stood at 35.

Turning to `COc1ccccc1-c1cncc2c1CN(c1ccccc1)C2=O`, the pIC50 in data set [1] was 5.89. The compound further gave a chromatographic logD in data set [3] of 2.94. Also, the solubility kinetic in data set [5] amounted to 0.9 µg/mL (≈ 2.84 µM).

Take `COc1ccccc1-c1nccc2c1CN(c1cccc(C)c1)C2=O`: the pIC50 in data set [1] is 5.36. Also, the microsomal CLint at 1 µM in data set [2] came to 584 µL/min/mg.

In data set [1], `COc1ccccc1-n1ncc2c1CN(c1ccccc1)C2=O` showed a negative-log IC50 (pIC50) of 5.36. Besides, the chromatographic logD in data set [3] was 2.45. In addition, in data set [5], the solubility kinetic is 22 µg/mL (≈ 72.1 µM).

For the compound `COc1ccccc1-c1cccc2c1CN(c1ccccc1)C2=O`, the pIC50 in data set [1] was 5.62. Also, the chromatographic logD in data set [3] came out at 3.87. In data set [5], the solubility kinetic was under 0.1 µg/mL.

In data set [1], `COc1ccccc1-c1nccc2c1CN(c1ccccc1C)C2=O` had a pIC50 of under 4.00. Besides, in data set [2], the microsomal CLint at 1 µM is 560 µL/min/mg.

As for `CS(=O)(=O)c1ccc(N2Cc3c(ccnc3-c3ccc(F)cc3OCC(F)(F)F)C2=O)cc1`, the pIC50 in data set [1] is 6.20. In data set [3], this compound came in with a chromatographic logD of 1.86. The inhibition at 5 min, 10 µM at hERG worked out at 23.7%. Also, in data set [4], the efflux ratio at 1 h, 1 µM came out at 32.

Regarding `COc1cccc(-c2nccc3c2CN(c2ccccc2)C3=O)c1`, in data set [1], the pIC50 was under 4.00. In addition, the microsomal CLint at 1 µM in data set [2] was over 768 µL/min/mg.

In data set [1], `CC(C)(O)c1ccc(NC(=O)c2cccc(-c3ccccc3OCC(F)(F)F)n2)cc1` gave a pIC50 of 6.77. In data set [3], this compound registered a chromatographic logD of 3.6. Besides, the efflux ratio at 1 h, 1 µM in data set [4] worked out at 2.2.

As to `O=C1c2ccnc(-c3ccccc3)c2CN1c1ccccc1`, the pIC50 in data set [1] was under 4.00. The microsomal CLint at 1 µM in data set [2] was over 768 µL/min/mg.

`CC(C)(O)c1ccc(NC(=O)c2cccc(-c3ccccc3OCC(F)(F)F)c2)cc1`: the pIC50 in data set [1] was 5.49. In data set [3], this compound displayed a chromatographic logD of 3.16. Moreover, the efflux ratio at 1 h, 1 µM in data set [4] was found to be 3.

Compound `COc1ccccc1-c1ccnc2c1CN(c1ccccc1)C2=O` showed a pIC50 in data set [1] of 4.77. This compound registered a chromatographic logD in data set [3] of 2.81. Besides, the solubility kinetic in data set [5] was found to be 4 µg/mL (≈ 12.6 µM).

In the case of `COc1ccccc1-c1nccc2c1CN(c1ccc(F)cc1)C2=O`, in data set [1], the pIC50 was 6.00. Further, the microsomal CLint at 1 µM in data set [2] was determined as 509 µL/min/mg.

`COc1ccccc1-c1ccc2c(c1)CN(c1ccccc1)C2=O` showed a negative logarithm of the IC50 (pIC50) in data set [1] of under 4.00.

On to `COc1ccccc1-c1nccc2c1CN(c1ccccc1)C2=O`, for which the negative-log IC50 (pIC50) in data set [1] is 5.72. In addition, the chromatographic logD in data set [3] was determined as 2.84. Also, in data set [5], the solubility kinetic is 18 µg/mL (≈ 56.9 µM). In addition, the microsomal CLint at 1 µM in data set [2] was over 768 µL/min/mg.

Turning to `CC(C)(O)c1ccc(NC(=O)c2ccnn(-c3ccc(F)cc3OCC(F)(F)F)c2=O)cc1`, the pIC50 in data set [1] is 7.31. Also, in data set [3], the chromatographic logD came to 2.55. The efflux ratio at 1 h, 1 µM in data set [4] is 6.6.

In turn, `CC(C)(O)c1ccc(NC(=O)c2cccn(-c3ccccc3OCC(F)(F)F)c2=O)cc1` showed a pIC50 in data set [1] of 7.72. Besides, the chromatographic logD in data set [3] turned out to be 2.12. In addition, the efflux ratio at 1 h, 1 µM in data set [4] amounted to 15.

In the case of `CCCCCCCC(=O)N[C@H](CN1CCCC1)[C@H](O)c1ccc2c(c1)OCCO2`, the inhibition entry in data set [6] is “Active”.

With `COc1cc(F)ccc1-c1nccc2c1CN(c1ccc(F)cc1)C2=O`, in data set [1], the pIC50 is 5.31. Besides, the microsomal CLint at 1 µM in data set [2] came out at 131 µL/min/mg.

Compound `O=C1c2ccnc(-c3ccc(F)cc3OC(F)(F)F)c2CN1c1ccc(F)cc1` gave a pIC50 in data set [1] of 7.31. In addition, the chromatographic logD in data set [3] was found to be 3. Besides, the solubility kinetic in data set [5] was under 0.15 µg/mL. Further, the microsomal CLint at 1 µM in data set [2] was found to be 14 µL/min/mg. At hERG, this compound yielded an inhibition at 5 min, 10 µM of 51.4%. The efflux ratio at 1 h, 1 µM in data set [4] came out at 2.6.

`CC(C)(O)COc1ccc(N2Cc3c(ccnc3-c3ccc(F)cc3OCC(F)(F)F)C2=O)cc1` had a negative logarithm of the IC50 (pIC50) in data set [1] of 7.40. For the same compound, the chromatographic logD in data set [3] came to 2.67. Further, on hERG, the inhibition at 5 min, 10 µM was 17.6%. Moreover, in data set [4], the efflux ratio at 1 h, 1 µM is 7.3.

`CC(C)(O)c1ccc(NC(=O)c2cccc(-c3ccccc3OCC(F)(F)F)c2F)cc1` had a negative-log IC50 (pIC50) in data set [1] of 7.35. In data set [3], this compound showed a chromatographic logD of 3.06. Besides, the efflux ratio at 1 h, 1 µM in data set [4] is 1.9.

Compound `COc1ccccc1-c1nccc2c1CN(C1CCCCC1)C2=O` gave a pIC50 in data set [1] of under 4.00. Also, in data set [2], the microsomal CLint at 1 µM came out at 727 µL/min/mg.

These data come from ChEMBL document CHEMBL5046282, “Discovery of Brain-Penetrant Glucosylceramide Synthase Inhibitors with a Novel Pharmacophore” (J Med Chem, 2022).
